“Also recorded” adds a separate entry of the source.
B1: DBP35: designed DNA-binding protein, SEQ ID NO: 15, DNA target B (protein)
chain: GFGRAVKEKRKELGLTQKEFAEKAGLSRRTIIRIERGYIVPPKATKEKIAKALGTSVEELEQA

Experiments:
[1] = system: 13 unique dsDNA targets; assay: All-by-all yeast surface display screen of DBP design hits; format: binding; conditions: for Target sequence preference: 13 unique dsDNA targets; for Number of the 13 tested DNA target sequences preferentially bound: 1 μM dsDNA with avidity, including designed target sequence; for Binding specificity versus design models: all-by-all screen with Rosetta-predicted motifs
Method: And an all-by-all screen of DBP design hits to 13 unique dsDNA targets was performed (FIG. 4, table 2). […] To try to understand these observed binding preferences, each tested DNA sequence was threaded onto each design complex model at all possible base pair alignments, the alternative complex models were relaxed with Rosetta™, and the model with the most favorable Rosetta™ ΔΔG was selected.
Saccharomyces cerevisiae EBY100 strain cultures were grown in C-Trp-Ura medium supplemented with 2% (w/v) glucose. For induction of expression, yeast cells were centrifuged at 6,000 g for 1 min and resuspended in SGCAA medium supplemented with 0.2% (w/v) glucose at the cell density of 1×10^7 cells per ml and induced at 30° C. for 16-24 h. Cells were washed with PBSF (PBS with 1% (w/v) BSA) and labeled with biotinylated targets using two labeling methods: with-avidity and without-avidity labeling. For the with-avidity method, the cells were incubated with biotinylated target, together with anti-c-Myc fluorescein isothiocyanate (FITC, Miltenyi Biotech) and streptavidin-phycoerythrin (SAPE, ThermoFisher). The concentration of SAPE in the with-avidity method was used at one-quarter of the concentration of the biotinylated targets. For the without-avidity method, the cells were first incubated with biotinylated targets, washed and secondarily labeled with SAPE and FITC.
(§1) For yeast display characterization of individual designs, including competition assays, DNA sequences encoding the proteins of interest were purchased as Integrated DNA Technologies (IDT) E-Blocks™, transformed into yeast cells, and incubated in 96 well culture plates. Labeling with biotinylated dsDNA targets and SAPE/FITC was performed in a 96 well plate format. For yeast display competition assays, labeling was performed without avidity using 1 μM biotinylated dsDNA duplex oligos and an excess of 8 μM non-biotinylated competitor dsDNA duplex oligos. […] Flow cytometry analysis was performed with an Attune NxT™ flow cytometer with autosampler. Flow cytometry data analysis was performed using custom python code and the CytoFlow™ python package. For each individual sample, gating of the expression population was performed using the CytoFlow™ Gaussian Mixture Model and the ratio of SAPE channel intensity to FITC channel intensity (binding signal/expression signal) was calculated for all gated expression events of the sample.

[2] = system: biotinylated target dsDNA with non-biotinylated competitor dsDNA; assay: Yeast display competition assay with base-substituted competitor dsDNA; format: binding; conditions: for DNA binding site specificity: all possible base mutations at each position of the competitor oligo
Source text: We used a yeast display competition assay to characterize the DNA binding site specificity of a subset of the designs (FIG. 1A-E, left; FIG. 5). Addition of non-biotinylated competitor dsDNA to biotinylated target sequence reduced binding signal by flow cytometry (FIG. 1A-E, middle). […] For example, in DBP6 (FIG. 1A) R31 and R36 in the design model form bidentate hydrogen bonds with the guanines of base pair positions G12 and C9, respectively, while T32 forms a hydrogen bond with C10.
as §1

[3] = system: dsDNA target; assay: Site saturation mutagenesis (SSM) library sorting, protein-side footprinting; format: binding; conditions: for Tolerance of positions to substitution: interface, core and surface positions; for Substitutions improving binding: every residue substituted with each of the 20 amino acids
Method: As disclosed in the examples that follow, the contributions of each amino acid to binding for additional designs, high-resolution footprints of the binding surface as generated was assessed by sorting site saturation mutagenesis libraries (SSMs) in which every residue was substituted with each of the 20 amino acids one at a time for DBPs 1, 6, and 35. Permissible substitutions for many of the polypeptides of the disclosure are provided in columns 2 and 3 Tables 4-19.
Thus, in some embodiments, substitutions relative to the reference sequence are selected from residues listed in columns 2 or 3 of one of Tables 4-19. In other embodiments, substitutions relative to the reference sequence are selected from residues listed in column 2 of one of Tables 4-19. Column 2 lists the “best” substitutions, which retain or improve DNA target binding activity relative to the reference sequence. Column 3 lists “permissible” substitutions, which retain binding to the DNA target sequence.
To assess the contributions of each amino acid to binding for additional designs, high-resolution footprints of the binding surface as generated by sorting site saturation mutagenesis libraries (SSMs) in which every residue was substituted with each of the 20 amino acids one at a time for DBPs 1, 6, and 35. […] In a small number of cases, substitutions led to notable improvements in binding affinity.
Cell sorting of labeled yeast pools was performed using a Sony SH800S cell sorter. Libraries of designs were sorted using the with-avidity method for the first few rounds of screening to exclude weak binder candidates, followed by several without-avidity sorts with different concentrations of targets. For SSM libraries, two rounds of with-avidity sorts were applied and in the third round of screening the libraries were titrated with a series of decreasing concentrations of targets to enrich mutants with beneficial mutations.
The Pear program was used to assemble the fastq files from the deep sequencing runs. Translated, assembled reads were matched against the ordered design to determine the number of counts for each design in each pool. In each sequenced pool, binder enrichment was calculated by determining the percent of reads for each binder design in the pool and dividing this number by the same value in the naive expression sort pool. […] For SSM libraries, apparent SC50 was estimated using the fitting procedure described in Longxing et al. (15)

[4] = system: synTF-specific cis-regulatory elements (CRE) in HEK293T cells; assay: Transcriptional activation by synTFs in HEK293T cells (ENGRAM); format: cell-based; conditions: DBP fused to GCN4 dimerization domain and VP64; HEK293T cells expressing PEmax; dependent on spacing between motifs
Source text: Next, we investigated whether the DBPs can be used as activators in mammalian cells. A set of synthetic transcription factors (synTFs) were created by fusing the GCN4 dimerization domain and the VP64 activation domain to the C-termini of DBPs 9, 35opt, 48, 57, and 60 which recognize 3 unique motifs. The dimerization domain allows the DBPs to recognize a palindromic target sequence consisting of two binding motifs, improving the binding affinity to the DNA sequence (FIG. 2C). We created synTF specific cis-regulatory elements (CRE) with 4 repeats spaced by 6 bp to drive the expression of downstream genes, and used the ENGRAM (43) recording technology to measure the activity of the synTFs in HEK293 cells. In ENGRAM, each CRE drives the expression of a uniquely barcoded pegRNA, which upon expression is recorded into the DNA TAPE at the HEK3 locus by prime-editor (PEmax); the activity of individual synTFs can be measured as the abundance of the barcode on the DNA TAPE (FIG. 2C). We first tested 3 different spacings-1 bp, 3 bp, and 5 bp-between the palindromic binding motifs to maximize the recorder activity. 3 synTF specific recorders and 1 TCF-LEF-recorder (negative control) were mixed with ratio 2:2:2:1 and co-transfected with synTFs into the HEK293T cells expressing PEmax. Cells were harvested and analyzed 2 days post-transfection. After analyzing the barcode abundance on the DNA TAPE, we observed 3-5 fold activation for DBP9/DBP35 and DBP57/DBP60 (FIG. 2D).
HEK293T cells expressing PEmax™ were cultured in DMEM High glucose (GIBCO), supplemented with 10% Fetal Bovine Serum (Rocky Mountain Biologicals) and 1% penicillin-streptomycin (GIBCO). Cells were grown with 5% CO2 at 37° C. 1×10^5 cells were seeded on a 48-well plate a day before transfection. Enhancer plasmid and binder plasmid were mixed with a ratio of 2:1. Enhancer variants and background control were mixed with a ratio of 2:2:2:1. A total of 300 ng of plasmid were transfected using Lipofectamine™ 3000 (ThermoFisher, L3000015), following the manufacturer's protocol. Cells were harvested 2 days post-transfection. Genomic DNA was extracted based on the protocol described earlier (43). Briefly, cells were lysed using freshly prepared lysis buffer (10 mM Tris-HCl, pH 7.5; 0.05% SDS; 25 µg/ml protease (ThermoFisher)) for each well. The genomic DNA mixture was incubated at 50° C. for 1 h, followed by an 80° C. enzyme inactivation step for 30 min. The DNA TAPE was amplified from the genomic DNA directly for next generation sequencing. Recorded information was extracted via custom analysis code. Each enhancer has a unique barcode representing its activity. Transcription activation was measured as the fold change in the barcode abundance relative to the negative control barcode. All measurements were performed in triplicates.

Molecule	Target sequence preference [1]	DNA binding site specificity [2]	Tolerance of positions to substitution [3]	Number of the 13 tested DNA target sequences preferentially bound [1]	Binding specificity versus design models [1]	Substitutions improving binding [3]	Number of base positions of specificity [2] [base positions]	Fold activation of synTFs measured as normalized barcode abundance in the DNA TAPE [4]
DBP1: designed DNA-binding protein, SEQ ID NO: 1, DNA target A (TARELEVAALIAQGRSNREIAEELNISERTVERYVRRILRKLGLRNRAQIAAWVIRRS)	strong preference for 2 or 3 of the sequence targets	specificities consistent with the designed sidechain-base interactions	most positions at the interface and the core were largely conserved while positions at the surface were more tolerant of substitutions					
DBP6: designed DNA-binding protein, SEQ ID NO: 4, DNA target B (DWAARAAAARRLRKERGLTQAELGELAGVSRTTVSRIELGRPDVSQASVDAVLAVL)	strong preference for only their designed target sequence	specificity for a 6 nucleotide stretch (TGCACA) with peripheral dependence on T8 and A13; also recorded: specificities consistent with the designed sidechain-base interactions; also recorded: specificity for the GCxG motif	most positions at the interface and the core were largely conserved while positions at the surface were more tolerant of substitutions	less than 3	bound with specificity closely consistent with the design models	relatively few mutations at interface positions improved binding with the exceptions of L39, D43, and 548		
B1		specificities consistent with the designed sidechain-base interactions	most positions at the interface and the core were largely conserved while positions at the surface were more tolerant of substitutions	less than 3	bound with specificity closely consistent with the design models	substitutions of R33 and K18 improved binding	3	3-5 fold

Reference: patent US20250051407A1, “De novo designed sequence-specific DNA binding proteins” (University of Washington, priority 2023, published 2025)
